Experimental data as given in ChEMBL document CHEMBL1125162, “High-potency dipeptide sweeteners. 2. L-aspartylfuryl-, thienyl-, and imidazolylglycine esters” (J Med Chem, 1990).

Experiment: Sweetness potency compared to 5-10% sucrose
Format: functional

For `CC12CCC(C1)C(C)(C)C2OC(=O)C(NC(=O)[C@@H](N)CC(=O)O)c1cccs1` (some centres not stated), which Potency is on record?
Its Potency is 2000.

For `CC12CCC(C1)C(C)(C)C2OC(=O)C(NC(=O)[C@@H](N)CC(=O)O)c1c[nH]cn1` (some centres not stated), which Potency is on record?
The Potency was 350.

With `CC12CCC(C1)C(C)(C)[C@H]2OC(=O)[C@H](NC(=O)[C@@H](N)CC(=O)O)c1ccco1` (some centres not stated) as the compound, how does the Potency read?
The Potency was 16500.

Which Potency does the source give for `COC(=O)C(NC(=O)[C@@H](N)CC(=O)O)C(=O)O[C@@H]1C(C)(C)C2CC[C@]1(C)C2` (stereo in doubt; 2) here?
Its Potency is 30000.

With `CC12CCC(C1)C(C)(C)C2OC(=O)C(NC(=O)[C@@H](N)CC(=O)O)c1ccsc1` (some centres not stated) as the compound, how does the Potency read?
The Potency was 2300.

Which Potency does the source give for `CC12CCC(C1)C(C)(C)[C@@H]2OC(=O)C(NC(=O)[C@@H](N)CC(=O)O)c1ccco1` (some centres not stated) here?
Its Potency is 630.

For `COC(=O)C(NC(=O)[C@@H](N)CC(=O)O)C(=O)O[C@@H]1C(C)(C)C2CC[C@]1(C)C2` (stereo in doubt; 3), which Potency is on record?
Its Potency is 50000.

For `CC1(C)C2CC[C@](C)(C2)[C@@H]1OC(=O)C(NC(=O)[C@@H](N)CC(=O)O)c1ccccc1` (stereo in doubt; 5), which Potency is on record?
The Potency was 3700.

For `CC12CCC(C1)C(C)(C)C2OC(=O)C(Cc1cccs1)NC(=O)[C@@H](N)CC(=O)O` (some centres not stated), which Potency is on record?
The Potency was 0.

Which Potency does the source give for `CC1(C)C2CC[C@](C)(C2)[C@@H]1OC(=O)C(NC(=O)[C@@H](N)CC(=O)O)c1ccccc1` (stereo in doubt; 4) here?
Its Potency is 1200.

With `CC12CCC(C1)C(C)(C)C2OC(=O)C(NC(=O)[C@@H](N)CC(=O)O)C1CCCO1` (some centres not stated) as the compound, how does the Potency read?
Its Potency is 0.

With `CC1CCC(C)C1OC(=O)C(NC(=O)[C@@H](N)CC(=O)O)c1ccco1` (some centres not stated) as the compound, how does the Potency read?
Its Potency is 400.
